Experimental data published in ChEMBL document CHEMBL4828735, “Discovery of N-((3S,4S)-4-(3,4-Difluorophenyl)piperidin-3-yl)-2-fluoro-4-(1-methyl-1H-pyrazol-5-yl)benzamide (Hu7691), a Potent and Selective Akt Inhibitor That Enables Decrease of Cutaneous Toxicity” (J Med Chem, 2021).
Calls of active or inactive are those of the source. No cut-off for these calls is given here.

Tests used:
[1] = Toxicity in mouse assessed as reduction in activity at 150 mg/kg; type: organism-based; conditions: in vivo
hERG (KCNH2) = hERG (KCNH2) (Homo sapiens, UniProt Q12809); assay: Inhibition of human ERG expressed in HEK293 cells at 3 uM by whole cell patch clamp method relative to control; type: cell-based; conditions: HEK293 cells expressing hERG
Sequence of hERG (KCNH2) (Q12809 whole entry): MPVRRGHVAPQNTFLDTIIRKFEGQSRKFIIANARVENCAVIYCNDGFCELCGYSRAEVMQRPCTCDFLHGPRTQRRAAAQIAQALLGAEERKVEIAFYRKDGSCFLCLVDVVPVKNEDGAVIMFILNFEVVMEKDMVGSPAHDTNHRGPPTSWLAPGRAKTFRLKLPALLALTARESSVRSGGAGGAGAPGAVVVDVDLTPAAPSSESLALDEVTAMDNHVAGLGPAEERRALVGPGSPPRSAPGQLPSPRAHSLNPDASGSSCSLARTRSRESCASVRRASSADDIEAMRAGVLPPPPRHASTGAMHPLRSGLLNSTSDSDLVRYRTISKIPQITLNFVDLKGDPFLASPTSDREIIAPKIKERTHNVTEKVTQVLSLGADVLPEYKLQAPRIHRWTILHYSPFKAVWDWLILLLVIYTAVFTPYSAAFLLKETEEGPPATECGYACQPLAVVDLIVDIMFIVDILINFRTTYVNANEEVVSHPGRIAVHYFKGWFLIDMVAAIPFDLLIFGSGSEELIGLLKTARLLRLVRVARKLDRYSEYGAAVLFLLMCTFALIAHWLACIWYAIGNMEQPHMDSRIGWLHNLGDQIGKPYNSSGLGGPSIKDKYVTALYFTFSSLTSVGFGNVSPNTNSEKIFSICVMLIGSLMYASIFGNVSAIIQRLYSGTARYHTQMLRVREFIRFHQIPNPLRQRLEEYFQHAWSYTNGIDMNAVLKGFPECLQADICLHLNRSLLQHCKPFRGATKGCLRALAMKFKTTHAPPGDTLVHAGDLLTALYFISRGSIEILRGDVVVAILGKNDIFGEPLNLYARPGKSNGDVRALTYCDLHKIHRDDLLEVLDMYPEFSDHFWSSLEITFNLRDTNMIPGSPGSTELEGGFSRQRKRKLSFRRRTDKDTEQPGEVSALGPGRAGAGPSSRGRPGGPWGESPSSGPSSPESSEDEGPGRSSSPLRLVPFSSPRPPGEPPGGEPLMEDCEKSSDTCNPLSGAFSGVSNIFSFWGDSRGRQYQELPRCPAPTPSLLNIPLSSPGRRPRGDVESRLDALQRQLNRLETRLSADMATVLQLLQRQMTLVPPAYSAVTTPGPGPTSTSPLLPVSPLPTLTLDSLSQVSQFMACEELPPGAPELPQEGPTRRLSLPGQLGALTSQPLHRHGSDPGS

Homo sapiens [2] = species on record: Homo sapiens; assay: Inhibition of PKA (unknown origin) at 0.5 uM
Homo sapiens [3] = species on record: Homo sapiens; assay: Inhibition of PKG (unknown origin) at 0.5 uM
[4] = biological target: cGMP-dependent protein kinase 2 (Homo sapiens) (UniProt Q13237); assay: Inhibition of PRKG2 (unknown origin) at 0.5 uM
Sequence of cGMP-dependent protein kinase 2 (Homo sapiens) (Q13237 whole entry): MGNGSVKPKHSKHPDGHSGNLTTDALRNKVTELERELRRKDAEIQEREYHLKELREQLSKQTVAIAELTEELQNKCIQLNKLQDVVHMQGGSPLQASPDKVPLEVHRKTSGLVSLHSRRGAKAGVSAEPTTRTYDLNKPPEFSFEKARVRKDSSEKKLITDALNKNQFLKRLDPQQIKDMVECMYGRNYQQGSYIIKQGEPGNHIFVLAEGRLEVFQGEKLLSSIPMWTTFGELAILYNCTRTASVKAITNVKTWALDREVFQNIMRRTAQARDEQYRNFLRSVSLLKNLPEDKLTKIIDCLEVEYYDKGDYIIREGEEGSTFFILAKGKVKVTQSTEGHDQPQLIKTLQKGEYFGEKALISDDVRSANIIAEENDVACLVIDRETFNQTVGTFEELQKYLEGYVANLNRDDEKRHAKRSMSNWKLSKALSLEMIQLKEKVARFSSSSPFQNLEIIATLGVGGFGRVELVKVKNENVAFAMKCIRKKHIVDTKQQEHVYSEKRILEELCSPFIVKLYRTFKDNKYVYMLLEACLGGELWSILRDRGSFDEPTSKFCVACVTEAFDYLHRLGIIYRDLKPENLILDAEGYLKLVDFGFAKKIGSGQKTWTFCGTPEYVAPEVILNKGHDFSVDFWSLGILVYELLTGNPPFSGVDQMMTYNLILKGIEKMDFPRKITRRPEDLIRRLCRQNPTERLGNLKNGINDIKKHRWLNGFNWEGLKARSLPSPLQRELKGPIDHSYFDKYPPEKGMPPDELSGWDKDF

[5] = biological target: Ribosomal protein S6 kinase alpha-1 (Homo sapiens, UniProt Q15418); assay: Inhibition of RSK1 (unknown origin)
Sequence of Ribosomal protein S6 kinase alpha-1 (Q15418 whole entry): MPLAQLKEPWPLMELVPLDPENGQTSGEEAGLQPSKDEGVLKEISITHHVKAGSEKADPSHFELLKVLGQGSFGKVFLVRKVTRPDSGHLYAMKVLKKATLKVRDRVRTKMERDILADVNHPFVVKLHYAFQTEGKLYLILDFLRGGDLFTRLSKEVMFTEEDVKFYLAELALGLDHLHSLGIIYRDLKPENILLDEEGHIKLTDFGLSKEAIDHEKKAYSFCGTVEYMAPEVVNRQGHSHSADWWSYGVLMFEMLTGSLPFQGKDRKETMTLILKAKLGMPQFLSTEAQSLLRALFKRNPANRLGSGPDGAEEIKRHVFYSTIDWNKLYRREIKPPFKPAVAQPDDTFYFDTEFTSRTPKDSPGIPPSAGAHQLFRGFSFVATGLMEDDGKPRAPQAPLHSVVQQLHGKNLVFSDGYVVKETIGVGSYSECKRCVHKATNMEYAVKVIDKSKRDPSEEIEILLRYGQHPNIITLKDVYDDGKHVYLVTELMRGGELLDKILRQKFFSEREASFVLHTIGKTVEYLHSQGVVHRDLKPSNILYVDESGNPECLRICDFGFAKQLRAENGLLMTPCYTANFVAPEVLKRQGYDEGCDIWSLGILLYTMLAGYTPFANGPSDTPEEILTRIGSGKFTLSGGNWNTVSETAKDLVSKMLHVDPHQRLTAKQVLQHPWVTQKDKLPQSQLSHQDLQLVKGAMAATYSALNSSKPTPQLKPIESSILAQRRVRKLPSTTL

[6] = biological target: Ribosomal protein S6 kinase beta-1 (Homo sapiens, UniProt P23443); assay: Inhibition of P70S6K (unknown origin)
[7] = biological target: Serine/threonine-protein kinase Sgk1 (Homo sapiens, UniProt O00141); assay: Inhibition of SGK (unknown origin)
[8] = biological target: Tyrosine-protein kinase ABL1 (Homo sapiens, UniProt P00519); assay: Inhibition of ABL (unknown origin)
[9] = biological target: ALK tyrosine kinase receptor (Homo sapiens, UniProt Q9UM73); assay: Inhibition of ALK (unknown origin)
Sequence of ALK tyrosine kinase receptor (Q9UM73 whole entry): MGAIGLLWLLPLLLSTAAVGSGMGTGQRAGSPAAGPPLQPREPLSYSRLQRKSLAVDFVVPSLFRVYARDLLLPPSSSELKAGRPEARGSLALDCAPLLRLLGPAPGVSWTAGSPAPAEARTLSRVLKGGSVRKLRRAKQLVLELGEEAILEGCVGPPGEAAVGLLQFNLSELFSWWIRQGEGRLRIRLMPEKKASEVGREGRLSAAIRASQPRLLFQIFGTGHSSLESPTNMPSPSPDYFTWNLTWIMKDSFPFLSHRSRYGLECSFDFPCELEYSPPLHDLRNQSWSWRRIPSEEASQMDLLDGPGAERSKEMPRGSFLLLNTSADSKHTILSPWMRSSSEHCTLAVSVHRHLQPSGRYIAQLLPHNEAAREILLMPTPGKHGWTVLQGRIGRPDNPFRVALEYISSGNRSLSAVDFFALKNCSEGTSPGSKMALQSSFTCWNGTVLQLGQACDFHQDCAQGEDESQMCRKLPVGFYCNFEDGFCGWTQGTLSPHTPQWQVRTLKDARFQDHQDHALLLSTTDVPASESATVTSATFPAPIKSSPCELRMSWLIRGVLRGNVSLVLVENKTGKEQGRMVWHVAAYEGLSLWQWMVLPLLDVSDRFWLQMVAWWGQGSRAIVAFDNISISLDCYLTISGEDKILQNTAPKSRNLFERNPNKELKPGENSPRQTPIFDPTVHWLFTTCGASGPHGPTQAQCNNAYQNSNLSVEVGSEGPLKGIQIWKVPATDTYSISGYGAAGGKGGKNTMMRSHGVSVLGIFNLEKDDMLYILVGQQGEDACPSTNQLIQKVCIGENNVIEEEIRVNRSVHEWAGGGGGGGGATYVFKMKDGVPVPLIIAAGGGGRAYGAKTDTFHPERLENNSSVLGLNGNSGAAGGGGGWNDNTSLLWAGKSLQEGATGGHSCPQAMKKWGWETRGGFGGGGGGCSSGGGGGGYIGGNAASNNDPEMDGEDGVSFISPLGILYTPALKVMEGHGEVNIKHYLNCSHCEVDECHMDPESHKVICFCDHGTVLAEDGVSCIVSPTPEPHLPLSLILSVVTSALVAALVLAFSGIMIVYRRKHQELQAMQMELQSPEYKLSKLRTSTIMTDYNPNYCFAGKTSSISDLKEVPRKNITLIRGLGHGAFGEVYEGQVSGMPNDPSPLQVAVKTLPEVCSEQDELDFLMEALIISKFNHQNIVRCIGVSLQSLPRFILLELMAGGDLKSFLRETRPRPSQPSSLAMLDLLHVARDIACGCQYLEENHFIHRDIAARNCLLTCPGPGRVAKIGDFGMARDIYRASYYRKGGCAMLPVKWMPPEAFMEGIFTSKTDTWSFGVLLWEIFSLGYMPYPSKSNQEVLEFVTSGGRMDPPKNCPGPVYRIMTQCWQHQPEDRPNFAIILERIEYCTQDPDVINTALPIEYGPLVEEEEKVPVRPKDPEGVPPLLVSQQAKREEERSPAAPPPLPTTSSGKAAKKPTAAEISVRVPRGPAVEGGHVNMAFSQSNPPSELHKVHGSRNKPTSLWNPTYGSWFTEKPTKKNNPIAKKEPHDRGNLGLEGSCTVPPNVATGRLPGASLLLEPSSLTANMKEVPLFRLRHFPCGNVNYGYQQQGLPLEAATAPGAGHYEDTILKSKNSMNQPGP

[10] = biological target: Mitogen-activated protein kinase 9 (Homo sapiens, UniProt P45984); assay: Inhibition of JNK2 (unknown origin)
[11] = biological target: Serine/threonine-protein kinase Chk1 (Homo sapiens, UniProt O14757); assay: Inhibition of CHK1 (unknown origin)
[12] = biological target: Phosphatidylinositol 4,5-bisphosphate 3-kinase catalytic subunit alpha isoform (Homo sapiens, UniProt P42336); assay: Inhibition of PI3Kalpha (unknown origin)
HaCaT = assay: Induction of apoptosis in human HaCaT cells assessed as cleaved caspase 3 level at 2.25 to 36 uM after 24 hrs by Western blot analysis; type: cell-based; conditions: dose 2.25-36 µM
U-251 = assay: Antiproliferative activity against human U251 cells assessed as inhibition of cell growth incubated for 72 hrs by SRB method; type: functional, cell-based; conditions: U-251, 72 h
NCI-H1975 = assay: Antiproliferative activity against human NCI-H1975 cells assessed as inhibition of cell growth incubated for 72 hrs by SRB method; type: functional, cell-based; conditions: NCI-H1975, 72 h
A549 = assay: Antiproliferative activity against human A549 cells assessed as inhibition of cell growth incubated for 72 hrs by SRB method; type: functional, cell-based; conditions: A549, 72 h
HT-29 = assay: Antiproliferative activity against human HT-29 cells assessed as inhibition of cell growth incubated for 72 hrs by SRB method; type: functional, cell-based; conditions: HT-29, 72 h
Cytochrome P450 1A2 = Cytochrome P450 1A2 (Homo sapiens, UniProt P05177); assay: Inhibition of CYP1A2 (unknown origin); type: ADME
Sequence of Cytochrome P450 1A2 (P05177 whole entry): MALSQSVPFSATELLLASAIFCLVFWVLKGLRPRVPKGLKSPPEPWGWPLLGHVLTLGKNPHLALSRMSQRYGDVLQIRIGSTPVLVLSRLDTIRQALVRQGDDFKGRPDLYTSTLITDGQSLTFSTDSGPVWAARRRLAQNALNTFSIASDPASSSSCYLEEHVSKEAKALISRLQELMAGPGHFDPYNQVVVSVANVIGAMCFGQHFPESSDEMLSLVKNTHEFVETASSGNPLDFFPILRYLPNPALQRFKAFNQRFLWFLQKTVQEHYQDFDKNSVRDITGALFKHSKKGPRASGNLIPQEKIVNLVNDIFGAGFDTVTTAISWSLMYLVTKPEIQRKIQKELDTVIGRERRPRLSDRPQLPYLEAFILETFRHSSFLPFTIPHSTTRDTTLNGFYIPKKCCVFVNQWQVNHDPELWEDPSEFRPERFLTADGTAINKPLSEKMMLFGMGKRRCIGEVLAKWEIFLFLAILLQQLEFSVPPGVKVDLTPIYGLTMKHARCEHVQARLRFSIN

Cytochrome P450 2D6 = Cytochrome P450 2D6 (Homo sapiens, UniProt P10635); assay: Inhibition of CYP2D6 (unknown origin); type: ADME
[13] = Microsomal stability in human liver microsomes assessed as half life at 50 uM preincubated for 5 mins with NADPH followed by compound addition and measured upto 60 mins by LC-MS/MS analysis; type: ADME, Microsome
[14] = Microsomal stability in monkey liver microsomes assessed as half life at 50 uM preincubated for 5 mins with NADPH followed by compound addition and measured upto 60 mins by LC-MS/MS analysis; type: ADME, Macaca mulatta, Microsome; conditions: rhesus monkey
[15] = Microsomal stability in rat liver microsomes assessed as half life at 50 uM preincubated for 5 mins with NADPH followed by compound addition and measured upto 60 mins by LC-MS/MS analysis; type: ADME, Microsome
[16] = Microsomal stability in mouse liver microsomes assessed as half life at 50 uM preincubated for 5 mins with NADPH followed by compound addition and measured upto 60 mins by LC-MS/MS analysis; type: ADME, Microsome
[17] = Microsomal stability in human liver microsomes assessed as intrinsic clearance at 50 uM preincubated for 5 mins with NADPH followed by compound addition and measured upto 60 mins by LC-MS/MS analysis; type: ADME, Microsome; conditions: read-out: CLH
[18] = Microsomal stability in dog liver microsomes assessed as intrinsic clearance at 50 uM preincubated for 5 mins with NADPH followed by compound addition and measured upto 60 mins by LC-MS/MS analysis; type: ADME, Canis lupus familiaris, Microsome; conditions: read-out: CLH
[19] = Microsomal stability in mouse liver microsomes assessed as intrinsic clearance at 50 uM preincubated for 5 mins with NADPH followed by compound addition and measured upto 60 mins by LC-MS/MS analysis; type: ADME, Microsome; conditions: read-out: CLH
[20] = Tmax in Sprague-Dawley rat at 15 mg/kg, ig measured upto 72 hrs by LC-MS/MS analysis; type: ADME, organism-based; conditions: in vivo, po
[21] = Half life in Sprague-Dawley rat at 15 mg/kg, ig measured upto 72 hrs by LC-MS/MS analysis; type: ADME, organism-based; conditions: in vivo, po
[22] = AUC(0 to t) in Beagle dog at 20 mg/kg, ig measured upto 96 hrs by LC-MS/MS analysis; type: ADME, organism-based, Canis lupus familiaris; design: route […], dose 20 mg/kg, time <=96; conditions: in vivo, po
[23] = Drug metabolism in po dosed Sprague-Dawley rat urine assessed as M2 metabolite formation measured upto 72 hrs by UPLC-TOF-MS/MS analysis; type: ADME, organism-based; conditions: in vivo
[24] = Drug metabolism in po dosed Sprague-Dawley rat urine assessed as M3 metabolite formation measured upto 72 hrs by UPLC-TOF-MS/MS analysis; type: ADME, organism-based; conditions: in vivo
[25] = Drug metabolism in po dosed Sprague-Dawley rat urine assessed as M4 metabolite formation measured upto 72 hrs by UPLC-TOF-MS/MS analysis; type: ADME, organism-based; conditions: in vivo
[26] = Drug metabolism in po dosed Sprague-Dawley rat feces assessed as M2 metabolite formation measured upto 24 hrs by UPLC-TOF-MS/MS analysis; type: ADME, organism-based; conditions: in vivo
[27] = Drug metabolism in po dosed Sprague-Dawley rat blood assessed as M3 metabolite formation measured upto 6 hrs by UPLC-TOF-MS/MS analysis; type: ADME, organism-based; conditions: in vivo
[28] = Toxicity in mouse assessed as maximum toxicity dose; conditions: in vivo
[29] = Toxicity in Sprague-Dawley rat assessed as appearance of skin lesions at 25 to 75 mg/kg administered daily for 4 weeks; type: organism-based; conditions: in vivo, 672 h, dose 25-75 mg/kg
[30] = Toxicity in Sprague-Dawley rat assessed as change in cell population at 25 to 75 mg/kg administered daily for 4 weeks; type: organism-based; conditions: in vivo, 672 h, dose 25-75 mg/kg
KHOS/NP [31] = assay: Antitumor activity against human KHOS cells xenografted in ig dosed BALB/c nude mouse assessed as tumor growth inhibition administered once daily for 22 days; type: functional, organism-based; conditions: dose 12.5-50 mg/kg, time 22.0 day
786-0 = assay: Antitumor activity against human 786-0 cells xenografted in dosed BALB/c nude mouse assessed as tumor growth inhibition at 12.5 to 50 mg/kg, ig administered once daily for 22 days; type: functional; conditions: dose 12.5-50 mg/kg, time 22 day
KHOS/NP [32] = assay: Antitumor activity against human KHOS cells xenografted in dosed BALB/c nude mouse assessed as tumor growth inhibition at 12.5 to 50 mg/kg, ig administered once daily for 22 days; type: functional; conditions: dose 12.5-50 mg/kg, time 22 day
[33] = Toxicity in BALB/c nude mouse xenografted with human 786-0 cells assessed as mortality at 12.5 to 50 mg/kg, ig administered once daily for 22 days; type: organism-based; conditions: in vivo, po, 528 h, dose 12.5-50 mg/kg, time 22 day

For `Cl.Cn1nccc1-c1ccc(C(=O)N[C@@H]2CNCC[C@H]2c2ccc(F)c(F)c2)c(F)c1`, the Activity [1] was “Toxic”, the inhibition at 3 µM (hERG (KCNH2)) was 15.9% and the inhibition (Homo sapiens [2]) was “Active”. The inhibition (Homo sapiens [3]) was “Active”, the inhibition [4] was “Active” and the IC50 [5] was 0.756 µM. For the same compound, the IC50 [6] was 0.229 µM, the IC50 [7] was 1.01 µM and the IC50 [8] was greater than 10 µM. For the same compound, the IC50 [9] was greater than 10 µM, the IC50 [10] was greater than 10 µM and the IC50 [11] was greater than 10 µM. For the same compound, the IC50 [12] was greater than 10 µM, the Activity (HaCaT) was “Non-Toxic” and the IC50 (U-251) was 6.53 µM. The IC50 (NCI-H1975) was 7.56 µM, the IC50 (A549) was 6.56 µM and the IC50 (HT-29) was 20.3 µM. The IC50 (Cytochrome P450 1A2) was greater than 100 µM, the IC50 (Cytochrome P450 2D6) was greater than 100 µM and the half-life at 50 µM [13] was 16.2 h. The half-life at 50 µM [14] was 1.7 h, the half-life at 50 µM [15] was 1.16 h and the half-life at 50 µM [16] was 6.73 h. The microsomal CLint at 50 µM [17] was 1.4 µL/min/mg, the microsomal CLint at 50 µM [18] was 4.1 µL/min/mg and the microsomal CLint at 50 µM [19] was 3.4 µL/min/mg. It also gave a Tmax [20] of 1.67 h, a half-life [21] of 8.68 h and an AUC(0-t) at 96 h [22] of 33300 ng·h/mL. The Drug metabolism [23] was “Metabolite_Detected”, the Drug metabolism [24] was “Metabolite_Detected” and the Drug metabolism [25] was “Metabolite_Detected”. For the same compound, the Drug metabolism [26] was “Metabolite_Detected”, the Drug metabolism [27] was “Metabolite_Detected” and the MTD [28] was 150 mg/kg. The Activity [29] was “Non-Toxic”, the Activity [30] was “Non-Toxic” and the Activity (KHOS/NP [31]) was “Dose-Dependent Effect”. For the same compound, the TGI (786-0) was 70%, the TGI (KHOS/NP [32]) was 55.7% and the Activity [33] was “Non-Toxic”.
